Values joined by “and” are separate entries in the source; they are usually repeats but may differ in a detail not shown here. Equal entries are not always repeated. Toxic doses and inconclusive results are not listed. Cut-off read from the data, not from the text of the source: active = T/C of 150% or more; inactive = T/C below 125%.
System: L1210 leukemia ip in BDF1 mice, survival T/C
Assay: NCI In Vivo Anticancer Drug Screen. Data for tumor model L1210 Leukemia (intraperitoneal) in B6D2F1 (BDF1) mice
Settings: endpoint: mean survival time, higher = longer survival
Summary of the method: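 Mice bearing the transplanted tumor received compound or vehicle. Survival of the treated group was divided by that of the vehicle-treated control group to give the ratio.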

[1] = dose: 12.5 mg/kg/injection, schedule: Q01DX009 (ip), vehicle: saline
[2] = dose: 25.0 mg/kg/injection, schedule: Q01DX009 (ip), vehicle: saline
[3] = dose: 100.0 mg/kg/injection, schedule: Q04DX003 (ip), vehicle: Klucel (hydroxypropylcellulose) (HPC)
[4] = dose: 200.0 mg/kg/injection, schedule: Q04DX003 (ip), vehicle: Klucel (hydroxypropylcellulose) (HPC)
[5] = dose: 400.0 mg/kg/injection, schedule: Q04DX003 (ip), vehicle: Klucel (hydroxypropylcellulose) (HPC)
[6] = dose: 100.0 mg/kg/injection, schedule: Q01DX009 (ip), vehicle: Klucel (hydroxypropylcellulose) (HPC)
[7] = dose: 100.0 mg/kg/injection, schedule: Q01DX009 (ip), vehicle: saline with Tween-80
[8] = dose: 200.0 mg/kg/injection, schedule: Q01DX009 (ip), vehicle: saline with Tween-80
[9] = dose: 50.0 mg/kg/injection, schedule: Q01DX009 (ip), vehicle: saline with Tween-80

Measured: T/C

O=S(=O)(CCCCl)Cc1ccccc1
inactive: dose: 100.0 mg/kg/injection, schedule: Q01DX009 (ip), vehicle: other 100 % of control | dose: 100.0 mg/kg/injection, schedule: Q04DX003 (ip), vehicle: other 110 % of control | dose: 200.0 mg/kg/injection, schedule: Q01DX009 (ip), vehicle: other 98 % of control | dose: 200.0 mg/kg/injection, schedule: Q04DX003 (ip), vehicle: other 101 % of control | dose: 400.0 mg/kg/injection, schedule: Q01DX009 (ip), vehicle: other 102 % of control | dose: 400.0 mg/kg/injection, schedule: Q04DX003 (ip), vehicle: other 107 % of control

C1CN2CCC1C1(C2)SSC2(CN3CCC2CC3)S1 (stereo not given)
inactive: dose: 6.25 mg/kg/injection, schedule: Q01DX009 (ip), vehicle: saline 107 % of control | dose: 6.25 mg/kg/injection, schedule: Q04DX003 (ip), vehicle: saline 96 % of control | [1] 96 % of control | dose: 12.5 mg/kg/injection, schedule: Q04DX003 (ip), vehicle: saline 107 % of control | [2] 119 % of control | dose: 25.0 mg/kg/injection, schedule: Q04DX003 (ip), vehicle: saline 94 % of control

CC1(C)N([O-])[N+](=O)C1(C)C
inactive: dose: 100.0 mg/kg/injection, schedule: Q01DX001 (ip), vehicle: saline with Tween-80 97 % of control | dose: 200.0 mg/kg/injection, schedule: Q01DX001 (ip), vehicle: saline with Tween-80 101 % of control | dose: 400.0 mg/kg/injection, schedule: Q01DX001 (ip), vehicle: saline with Tween-80 101 % of control

CCCCOP(=O)(OCCCC)C(c1ccccc1)(c1ccccc1)c1ccccc1
inactive: [3] 91 % of control | [4] 94 % of control | [5] 96 % of control

Cc1ccccc1N=Nc1c(O)n(-c2ccc(Cl)cc2)c(=S)n(-c2ccccc2)c1=O
inactive: dose: 75.0 mg/kg/injection, schedule: Q04DX003 (ip), vehicle: Klucel (hydroxypropylcellulose) (HPC) 100 % of control | dose: 150.0 mg/kg/injection, schedule: Q04DX003 (ip), vehicle: Klucel (hydroxypropylcellulose) (HPC) 96 % of control | dose: 300.0 mg/kg/injection, schedule: Q04DX003 (ip), vehicle: Klucel (hydroxypropylcellulose) (HPC) 107 % of control

Cc1cc(Cl)ccc1OCC(=O)Oc1c(Cl)c(Cl)c(Cl)c(Cl)c1Cl
inactive: dose: 100.0 mg/kg/injection, schedule: Q04DX002 (ip), vehicle: Klucel (hydroxypropylcellulose) (HPC) 93 % of control | dose: 200.0 mg/kg/injection, schedule: Q04DX002 (ip), vehicle: Klucel (hydroxypropylcellulose) (HPC) 112 % of control

CC1(C)c2cc3ccc(Cl)cc3nc2-c2ccccc2C1(C)O (stereo not given)
inactive: [6] 89 % of control | dose: 100.0 mg/kg/injection, schedule: Q04DX003 (ip), vehicle: acetone 98 % of control | dose: 200.0 mg/kg/injection, schedule: Q01DX009 (ip), vehicle: Klucel (hydroxypropylcellulose) (HPC) 89 % of control | dose: 200.0 mg/kg/injection, schedule: Q04DX003 (ip), vehicle: acetone 101 % of control | dose: 400.0 mg/kg/injection, schedule: Q04DX003 (ip), vehicle: acetone 91 % of control

C[C@]12CCC(=O)C=C1CC[C@@H]1[C@@H]2[C@@H](O)C[C@@]2(C)[C@H]1CC[C@]2(O)C(=O)CF
inactive: dose: 50.0 mg/kg/injection, schedule: Q01DX Z (sc), vehicle: steriod suspending solution 106 % of control | dose: 250.0 mg/kg/injection, schedule: Q01DX Z (sc), vehicle: steriod suspending solution 104 % of control | dose: 500.0 mg/kg/injection, schedule: Q01DX Z (sc), vehicle: steriod suspending solution 107 % of control

COc1cc(-c2nc3ccccc3c(=O)o2)cc(OC)c1OC
inactive: [7] 105 % of control | dose: 100.0 mg/kg/injection, schedule: Q04DX003 (ip), vehicle: saline with Tween-80 103 % of control | [8] 91 % of control | dose: 200.0 mg/kg/injection, schedule: Q04DX003 (ip), vehicle: saline with Tween-80 89 % of control | dose: 400.0 mg/kg/injection, schedule: Q04DX003 (ip), vehicle: saline with Tween-80 97 % of control

CC1(C)C2CC3C(=CCC4C(=O)C=CC(=O)C43)C1C2 (stereo not given)
inactive: [3] 95 % of control | [4] 93 % of control | [5] 95 % of control

Cc1ccc(C)c(NC(=O)Oc2ccc3ccccc3c2)c1
inactive: [6] 93 % of control | [3] 107 % of control | [4] 107 % of control | dose: 400.0 mg/kg/injection, schedule: Q01DX009 (ip), vehicle: Klucel (hydroxypropylcellulose) (HPC) 91 % of control | [5] 97 % of control

CC1(C)N=C(N)N=C(N)N1c1cccc(C(=O)Nc2cccc(S(=O)(=O)F)c2)c1
inactive: dose: 6.25 mg/kg/injection, schedule: Q#A X018 (ip), vehicle: saline 97 % of control | [1] 103 % of control | dose: 12.5 mg/kg/injection, schedule: Q#A X018 (ip), vehicle: saline 101 % of control | [2] 101 % of control | dose: 25.0 mg/kg/injection, schedule: Q#A X018 (ip), vehicle: saline 101 % of control | dose: 50.0 mg/kg/injection, schedule: Q01DX009 (ip), vehicle: saline 95 % of control and 107 % of control | dose: 50.0 mg/kg/injection, schedule: Q#A X018 (ip), vehicle: saline 101 % of control | dose: 100.0 mg/kg/injection, schedule: Q01DX001 (ip), vehicle: saline 105 % of control | dose: 100.0 mg/kg/injection, schedule: Q01DX009 (ip), vehicle: saline 104 % of control | dose: 200.0 mg/kg/injection, schedule: Q01DX001 (ip), vehicle: saline 94 % of control

C[N+](C)(C)CCCNC(=O)Nc1ccc(Cl)cc1
inactive: dose: 3.13 mg/kg/injection, schedule: Q04DX002 (ip), vehicle: saline 102 % of control | dose: 6.25 mg/kg/injection, schedule: Q04DX002 (ip), vehicle: saline 117 % of control | dose: 12.5 mg/kg/injection, schedule: Q04DX002 (ip), vehicle: saline 106 % of control

CN(C)CC1CCCCC1OC(=O)c1ccccc1 (stereo not given)
inactive: [9] 91 % of control | [7] 94 % of control

COc1ccc(C(=O)c2cc(Br)ccc2O)cc1
inactive: dose: 100.0 mg/kg/injection, schedule: Q01DX001 (ip), vehicle: carboxymethylcellulose (CMC) 98 % of control | dose: 200.0 mg/kg/injection, schedule: Q01DX001 (ip), vehicle: carboxymethylcellulose (CMC) 100 % of control | dose: 400.0 mg/kg/injection, schedule: Q01DX001 (ip), vehicle: carboxymethylcellulose (CMC) 98 % of control

C=C(C)/C=C/C1CCCCC1
inactive: [9] 95 % of control | [7] 106 % of control | [8] 95 % of control

CS(=O)c1ccc([N+](=O)[O-])cc1 (stereo not given)
inactive: [3] 98 % of control | [4] 104 % of control | [5] 105 % of control

CS(=O)(=O)O.[Cu+2]
inactive: dose: 5.0 mg/kg/injection, schedule: Q01DX001 (ip), vehicle: saline 93 % of control | dose: 10.0 mg/kg/injection, schedule: Q01DX001 (ip), vehicle: saline 96 % of control
